{"source": "patent US12565665B2", "about": "“Compositions and methods for controlled mRNA translation and stability” (TRUSTEES OF BOSTON UNIVERSITY, priority 2022, dated 2026)", "format_in_all_cases": "cell-based, human", "key": {"editable AUG reporters": {"test_system": "editable AUG reporters", "test": "Destruction of an AUG start codon to IUG, EGFPd2/dTomato reporter, flow cytometry", "conditions": "48 hours post-transfection; n=3", "text": "To test this, an ADAR substrate was designed similar to the substrates tested above, but with an AUG codon in a dsRNA hairpin with a mismatch to promote the deamination of the correct adenine (see e.g., FIG. 28b). This scheme was similarly tested with both the high affinity MS2-C and lower affinity MS2-A variants by cloning these substrates into a pcDNA3 vector with a bidirectional CMV driving the expression of dTomato and EGFPd2 (see e.g., FIG. 28c).\nHEK cells were co-transfected with the two different reporter constructs (MS2-C and MS2-A) and cither filler DNA, MCP-dADAR, or MCP-ADAR. 48 hours post-transfection, cells were lifted and analyzed by flow cytometry. Transfected cells were gated by dTomato, and the median EGFPd2-to-dTomato ratio for the population was calculated per replicate (n=3) by FLOWJO. 2-Way ANOVA was performed to determine significance."}, "UAG-MS2 editing reporter [1]": {"test_system": "UAG-MS2 editing reporter", "test": "Stop codon editing reporter (mCherry / mNeonGreen) co-transfected with ADAR variants, flow cytometry (median mNeonGreen to mCherry)", "conditions": "n=1", "text": "For the reporter system, the inventors used the fluorescent protein-epitope tag tandem fusions of mCherry-FLAG and HA-mNeonGreen as the upstream and downstream coding regions. Without DD editing activity, translation is terminated after mCherry-FLAG. Coexpression with MCP-ADAR2-DD was hypothesized to lead to binding of MCP-DD, stop codon UAG editing to UIG, and expression of mNeonGreen (FIG. 1B).\nHEK 293 FT cells were co-transfected with plasmids expressing the reporter containing 2 UAG stop codons in the hairpin and a pcDNA3 construct encoding a fusion protein composed of MCP, ADAR2-DD (E488Q), and TagBFP.\nTwo days later, fluorescence microscopy images were taken of the cell populations. […] The inventors repeated the experiment and analyzed the samples by flow-cytometry.\nThe inventors transiently co-transfected HEK 293 FT cells with the mCherry-mNeonGreen reporter, MCP-ADAR2-DD variants containing different configurations of ALFA-tag insertions and NbALFA fusions, and uncaging constructs containing miRFP670 fused to ALFA. Without wishing to be bound by theory, it was hypothesized that the intramolecular interaction would inhibit the ADAR2-DD, but that the ALFA tag on the miRFP670 would displace the lower strength ALFA variants (PE and 78), and perhaps at high enough concentrations displace the intramolecular ALFA, and lead to increased editing.\nThe inventors then made an ADAR-DD variant with an inserted TEV protease cut site (amino acids ENLYFQG, SEQ ID NO: 286) between the C-terminus of ADAR2-DD and the N-terminus of SpyCatcher (FIG. 5C). The inventors co-transfected HEK 293 FT cells with the reporter construct, the ADAR-DD TEVcs variant, and the TEV protease and 48 hours later analyzed the transfected cells via flow cytometry (FIG. 5D-5E).\nMutated versions were then cloned and co-transfected with an editing reporter in the absence and presence of A-1331852, and absolute background and fold change upon drug addition were determined by flow cytometry (see e.g., FIG. 22d and table 11)."}, "T2A* construct": {"test_system": "T2A* construct", "test": "Western blot (FLAG) of T2A* construct co-transfected with MCP-ADAR constructs", "conditions": "3 ng T2A* and 30 ng ADAR construct; lysates 48 hours later", "procedure": "Additionally, the clonal HEK line was co-transfected with 3 ng of the T2A* construct and 30 ng of either filler DNA, MCP-dADAR, or MCP-ADAR. 48 hours later lysates were collected with 1×LDS-PAGE loading buffer (THERMOFISHER) on ice. The samples were sonicated, centrifuged, and boiled at 70° C. for 10 min after the addition of 1×Reducing Agent (THERMOFISHER). The samples were run on a 4%-12% bis-tris polyacrylamide gel at 175V for 45 minutes, and the samples were transferred onto a nitrocellulose membrane using the IBLOT (THERMOFISHER). Samples were probed for FLAG tag (Direct-Blot™ HRP anti-[…] Tag Antibody, “[…]” is disclosed as SEQ ID NO: 406) and GAPDH-loading control (Direct-Blot™ HRP anti-GAPDH Antibody) respectively."}, "UAG-MS2 editing reporter [2]": {"test_system": "UAG-MS2 editing reporter", "test": "Stop codon editing reporter (mCherry / mNeonGreen) co-transfected with ADAR variants, fluorescence microscopy / ImageJ quantification", "conditions": "HEK 293 FT cells co-transfected with reporter containing 2 UAG stop codons in the hairpin; two days after transfection"}, "T2A (G18R) construct": {"test_system": "T2A (G18R) construct", "test": "Sense codon editing (AGG to IGG) of T2A (G18R), UAS-H2B-mCherry reporter cells, flow cytometry", "conditions": "30 ng ADAR construct, n=3", "text": "To test inducible ADAR recoding of a protein's amino acid composition, a construct was designed that contained: a CD8 signal peptide, an HA epitope tag, the self-labeling Halo Tag, a mutant variant of the thosea asigna virus 2A self-cleaving peptide that is defective for ribosome skipping (Gly 18Arg mutation), the DNA binding domain of Gal4, and a 4× repeat of the transcriptional activation domain from herpes virus (VP64) (see e.g., FIG. 37a). The penultimate glycine in 2A peptides is invariant (see e.g., FIG. 37b) and any mutation leads to defective ribosome skipping. The codon for the G18R residue (AGG) is in a dsRNA hairpin with the high affinity MS2-C motif, which acts as a substrate for targeted MCP-ADAR. In the absence of ADAR editing, the defective T2A sequence will lead to the topological sequestering of the Gal4-VP64 transcription factor in the ER lumen due to the fusion to the secreted HaloTag (see e.g., FIG. 37c). Upon ADAR editing of the Arg18 codon to glycine (AGG to IGG), the T2A regains the function of ribosome skipping. This leads to the protein domains downstream of the T2A sequence to be translated as a separate polypeptide in the cytoplasm, whereby the GAL4-VP64 transcription factor translocate to the nucleus and turn on the expression of a fluorescent H2B-mCherry reporter (see e.g., FIG. 37c).\nTo test this, an in-house clonal HEK293FT cell line that contains an integrated UAS-H2B-mCherry reporter was co-transfected with the editable T2A (also called T2A*) construct (3 ng, 0.3 ng and 0.03 ng) and cither MCP-dADAR or MCP-ADAR (30 ng). A GAL4-VP64 positive control was also transfected into HEK cells. One day post-transfection, cells were lifted and analyzed by flow cytometry. Transfected cells were gated by TagBFP, the median H2B-mCherry fluorescence for the population was calculated and H2B-mCherry positive populations within the transfected cells were determined by the percentage of cells above 0.5% of non-transfected control cells per replicate (n=3) by FLOWJO."}}}
{"substance": "MCP-linker-ADAR2(E488Q)-TagBFP [MCP-ADAR]", "values": [{"measurement": "relative EGFPd2 levels, active vs inactive ADAR, MS2-A based AUG construct", "setting": "editable AUG reporters", "value": "further, significant decrease in relative EGFPd2 levels"}, {"measurement": "translational efficiency, MS2-A based AUG construct", "setting": "editable AUG reporters", "value": "significant decrease in translational efficiency"}, {"measurement": "Fold Change", "setting": "UAG-MS2 editing reporter [1]; 1 μM vs 0 μM A-1331852, flow cytometry", "value": 1.03}, {"measurement": "Flow Cytometry Values, 0 μM (median of the ratio of mNeonGreen to mCherry)", "setting": "UAG-MS2 editing reporter [1]; HEK cells co-transfected with ADAR reporter and ADAR variant, 0 μM A-1331852, two days after transfection, gated by BFP", "value": 0.9853}, {"measurement": "Flow Cytometry Values, 1 μM (median of the ratio of mNeonGreen to mCherry)", "setting": "UAG-MS2 editing reporter [1]; HEK cells co-transfected with ADAR reporter and ADAR variant, 1 μM A-1331852, two days after transfection, gated by BFP", "value": 1.0147}, {"measurement": "FLAG staining of the main HaloTag-T2A*-FLAG-Gal4-VP64 fusion product (~67 kDa)", "setting": "T2A* construct", "value": "reduced staining"}, {"measurement": "mNeonGreen expression, fluorescence microscopy", "setting": "UAG-MS2 editing reporter [2]", "value": "mNeonGreen robustly expressed"}, {"measurement": "population expressing any H2B-mCherry compared to dADAR, 0.03 ng T2A*", "setting": "T2A (G18R) construct; 0.03 ng T2A* construct", "value": "significantly higher"}, {"measurement": "population expressing any H2B-mCherry compared to dADAR, 0.3 ng T2A*", "setting": "T2A (G18R) construct; 0.3 ng T2A* construct", "value": "significantly higher"}, {"measurement": "median H2B-mCherry expression compared to inactive MCP-dADAR control", "setting": "T2A (G18R) construct; 3 ng T2A* construct, one day post-transfection", "value": "significant increase"}]}
